# Experimental data from patent US12583895B2, “Polypeptides for restoring endothelial function and methods of use thereof” (Vanderbilt University, priority 2019, dated 2026).
# Entries after “also recorded” stand apart in the source; their conditions may differ. Non-standard residues stand in square brackets, D forms with d. No end group written: not given here. pS = N[C@@H](COP(=O)(O)O)C(=O)O
# Assays:
# [1] = tested on: human saphenous veins (HSV); assay: Endothelial-dependent relaxation of human saphenous veins from CABG patients, muscle bath; type: cell-based; conditions: human saphenous vein; for endothelial function (percent relaxation to carbachol) in HSV / relaxation responses normalized to baseline relaxation in HSV: 1 hour; for relaxation responses normalized to baseline relaxation in HSV: mean±SD
# Experimental: Human saphenous veins (HSV) were collected from patients undergoing coronary artery bypass grafting procedures and treated with NiPp (500 μM) for 1 hour at room temperature. PE-precontracted tissues were treated with carbachol (CCH; 10^−8 to 10^−5M). Percent relaxation was determined as a change to the maximal PE-induced contraction. Data are reported as mean responses±standard deviation. n=2. Baseline endothelial function in HSV was low.
# PE-precontracted tissues were treated with carbachol (CCH; 10^−8 to 10^−5M). Percent relaxation were determined as a change to the maximal PE-induced contraction. Data are reported as mean responses±standard deviation. n=10. […] When normalized to baseline relaxation, NiPp led to 255±321.5% in relaxation responses in HSV.
# HSV were suspended in the muscle bath, contracted with PE and treated with carbachol (CCH; 10^−8 to 10^−5 M). The percent relaxation was determined as a change to the maximal PE-induced contraction. Percent relaxation to 5×10^−6 M CCH is shown. n=10; *p<0.05 in paired t-test. […] Data are expressed as mean±SD.
# Human saphenous veins (HSV) was obtained under approval from the Institutional Review Board of Vanderbilt University Medical Center from consented patients undergoing coronary artery bypass grafting procedures. HSV segments were collected immediately following surgical harvest and transported to the laboratory in PL for immediate experimentation.
# Measurement of endothelial-dependent relaxation. Rings of HSV or RA (1-2 mm) were suspended in a muscle bath containing a bicarbonate buffer (120 mM sodium chloride, 4.7 mM potassium chloride, 1.0 mM magnesium sulfate, 1.0 mM monosodium phosphate, 10 mM glucose, 1.5 mM calcium chloride, and 25 mM sodium bicarbonate, pH 7.4) equilibrated with 95% O2/5% CO2 at 37° C. for 1 h at a resting tension of 1 g, manually stretched to three times the resting tension, and maintained at resting tension for an additional 1 h.
# This produced the maximal force tension relationship as previously described. After equilibration, the rings were primed with 110 mM potassium chloride (with equimolar replacement of sodium chloride in bicarbonate buffer) to determine functional viability. Viable rings were then tested for contractile response to a dose of phenylephrine (PE) to yield submaximal contraction (approximately 60-70% of maximum KCl; 5×10^−6 M for HSV and 1-5×10^−7 M for RA) and relaxed with carbachol (CCH, 5×10^−7 M), an acetylcholine analogue, to determine endothelial-dependent relaxation responses. Force measurements were obtained using the Radnoti force transducer (model 159901A, Radnoti LLC, Monrovia, CA) interfaced with a PowerLab data acquisition system and LabChart software (AD Instruments Inc., Colorado Springs, CO). Contractile responses were defined by stress, calculated using force generated by tissues as follows: stress (×10^5 N/m^2)=force (g)×0.0987/area, where area=wet weight (mg)/at maximal length (mm)]/1.055.
# Relaxation was calculated as percent change in stress compared to the maximal PE-induced contraction (set as 100%). Each data point was averaged from at least two rings from the same specimen. To determine concurrent signaling events, tissues were frozen in liquid nitrogen at relevant timepoints.
# This study illustrates that the NiPp polypeptide (SEQ ID NO:1) restores endothelial function in aged human saphenous veins. […]
# FGFR1 = FGFR1 (Homo sapiens, UniProt P11362); assay: SelectScreen kinase profiling; type: biochemical; conditions: NiPp 100 μM; kinases inhibited at >40% are listed
# Experimental: (§1) Kinase profiling. NiPp was dissolved in DMSO, screened at a single concentration of 100 μM using in vitro kinase assays (SelectScreen Kinase Profiling Service; ThermoFisher Scientific, Madison WI) including the Z'LYTE and Adapta kinase activity assays and the LanthaScreen Eu Kinase Binding Assay). Candidate interactions were predicted using STRING Version 11 (www.string-db-org) with the human database at confidence=0.7.
# (§2) As injury leads to increased p38 MAPK phosphorylation and decreased Niban phosphorylation, one of the mechanisms by which NiPp restores function after endothelial injury can be kinase inhibition. A kinase profiling was performed using three different profiling platforms that measure activity and kinase/substrate binding. Kinases of which activity or substrate binding were inhibited by NiPp (100 μM) at >40% are listed and shown in a kinase dendrogram (FIGS. 14A, 14B, 19A and 19B).
# (§3) The top two candidate kinase targets of NiPp were mitogen- and stress-activated kinase 1 (MSK1; also known as RPS6KA5) and p38 MAPKα (MAPK14), which were inhibited by 66% and 61%, respectively. MSK1 is an AGC kinase of the RSK family that is phosphorylated by ERK and p38 MAPK in response to cellular stress. Other kinases inhibited by the NiPp include CKD18 of the CMGC kinase family), FGFR1 of the TK family, and the PIK3R3 kinase (FIGS. 19A and 19B).
# CKD18 = CKD18 (Homo sapiens, UniProt Q07002); assay: SelectScreen kinase profiling; type: biochemical; conditions: NiPp 100 μM; kinases inhibited at >40% are listed
# Experimental: as §1, §2, §3
# PIK3R3 kinase = PIK3R3 kinase (Homo sapiens, UniProt Q92569); assay: SelectScreen kinase profiling; type: biochemical; conditions: NiPp 100 μM; kinases inhibited at >40% are listed
# Experimental: as §1, §2, §3
# Chain of CKD18 (Q07002 whole entry): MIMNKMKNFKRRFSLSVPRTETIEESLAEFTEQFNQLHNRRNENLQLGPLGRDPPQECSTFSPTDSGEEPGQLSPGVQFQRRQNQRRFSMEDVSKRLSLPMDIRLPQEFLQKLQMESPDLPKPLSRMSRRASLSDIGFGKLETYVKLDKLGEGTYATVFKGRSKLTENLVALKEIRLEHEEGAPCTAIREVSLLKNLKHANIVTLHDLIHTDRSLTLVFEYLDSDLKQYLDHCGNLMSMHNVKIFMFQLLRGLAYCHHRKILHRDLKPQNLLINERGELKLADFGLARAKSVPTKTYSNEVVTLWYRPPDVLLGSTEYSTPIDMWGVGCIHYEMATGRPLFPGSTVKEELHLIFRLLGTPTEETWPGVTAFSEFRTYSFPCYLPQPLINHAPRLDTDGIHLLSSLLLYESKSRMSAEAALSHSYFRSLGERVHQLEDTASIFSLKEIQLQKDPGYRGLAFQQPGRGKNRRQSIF
# Chain of CKD18 (Q8ND76 whole entry partner): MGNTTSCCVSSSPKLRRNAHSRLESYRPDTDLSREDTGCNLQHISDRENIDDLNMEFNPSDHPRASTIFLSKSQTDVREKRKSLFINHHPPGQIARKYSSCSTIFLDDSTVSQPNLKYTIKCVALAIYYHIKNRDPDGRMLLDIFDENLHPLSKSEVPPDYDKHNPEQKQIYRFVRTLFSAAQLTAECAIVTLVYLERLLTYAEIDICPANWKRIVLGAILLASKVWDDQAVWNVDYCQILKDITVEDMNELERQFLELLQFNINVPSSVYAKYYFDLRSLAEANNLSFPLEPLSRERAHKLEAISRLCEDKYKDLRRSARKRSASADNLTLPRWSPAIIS
# Chain of FGFR1 (P11362 22-822): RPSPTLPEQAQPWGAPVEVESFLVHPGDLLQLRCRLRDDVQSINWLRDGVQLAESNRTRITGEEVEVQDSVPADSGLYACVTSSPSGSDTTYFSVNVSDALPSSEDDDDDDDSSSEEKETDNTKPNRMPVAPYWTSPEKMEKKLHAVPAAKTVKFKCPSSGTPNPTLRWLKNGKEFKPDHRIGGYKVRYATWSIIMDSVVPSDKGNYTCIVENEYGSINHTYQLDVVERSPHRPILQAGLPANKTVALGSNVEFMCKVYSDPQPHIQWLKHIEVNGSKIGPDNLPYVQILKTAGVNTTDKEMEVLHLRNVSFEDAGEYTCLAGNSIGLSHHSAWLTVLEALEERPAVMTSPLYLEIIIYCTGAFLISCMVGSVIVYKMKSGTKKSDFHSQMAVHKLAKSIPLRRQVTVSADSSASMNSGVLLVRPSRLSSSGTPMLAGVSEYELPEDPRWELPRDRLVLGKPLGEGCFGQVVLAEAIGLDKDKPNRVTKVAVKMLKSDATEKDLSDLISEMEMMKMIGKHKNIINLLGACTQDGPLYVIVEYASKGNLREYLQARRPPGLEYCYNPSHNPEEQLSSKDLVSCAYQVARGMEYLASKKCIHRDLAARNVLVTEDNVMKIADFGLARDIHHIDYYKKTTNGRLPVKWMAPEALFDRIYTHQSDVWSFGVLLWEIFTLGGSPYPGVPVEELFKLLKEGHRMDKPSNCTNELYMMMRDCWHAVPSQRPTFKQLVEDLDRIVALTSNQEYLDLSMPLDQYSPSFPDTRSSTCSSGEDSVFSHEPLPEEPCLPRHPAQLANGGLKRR
# Chain of PIK3R3 kinase (P42336 whole entry partner): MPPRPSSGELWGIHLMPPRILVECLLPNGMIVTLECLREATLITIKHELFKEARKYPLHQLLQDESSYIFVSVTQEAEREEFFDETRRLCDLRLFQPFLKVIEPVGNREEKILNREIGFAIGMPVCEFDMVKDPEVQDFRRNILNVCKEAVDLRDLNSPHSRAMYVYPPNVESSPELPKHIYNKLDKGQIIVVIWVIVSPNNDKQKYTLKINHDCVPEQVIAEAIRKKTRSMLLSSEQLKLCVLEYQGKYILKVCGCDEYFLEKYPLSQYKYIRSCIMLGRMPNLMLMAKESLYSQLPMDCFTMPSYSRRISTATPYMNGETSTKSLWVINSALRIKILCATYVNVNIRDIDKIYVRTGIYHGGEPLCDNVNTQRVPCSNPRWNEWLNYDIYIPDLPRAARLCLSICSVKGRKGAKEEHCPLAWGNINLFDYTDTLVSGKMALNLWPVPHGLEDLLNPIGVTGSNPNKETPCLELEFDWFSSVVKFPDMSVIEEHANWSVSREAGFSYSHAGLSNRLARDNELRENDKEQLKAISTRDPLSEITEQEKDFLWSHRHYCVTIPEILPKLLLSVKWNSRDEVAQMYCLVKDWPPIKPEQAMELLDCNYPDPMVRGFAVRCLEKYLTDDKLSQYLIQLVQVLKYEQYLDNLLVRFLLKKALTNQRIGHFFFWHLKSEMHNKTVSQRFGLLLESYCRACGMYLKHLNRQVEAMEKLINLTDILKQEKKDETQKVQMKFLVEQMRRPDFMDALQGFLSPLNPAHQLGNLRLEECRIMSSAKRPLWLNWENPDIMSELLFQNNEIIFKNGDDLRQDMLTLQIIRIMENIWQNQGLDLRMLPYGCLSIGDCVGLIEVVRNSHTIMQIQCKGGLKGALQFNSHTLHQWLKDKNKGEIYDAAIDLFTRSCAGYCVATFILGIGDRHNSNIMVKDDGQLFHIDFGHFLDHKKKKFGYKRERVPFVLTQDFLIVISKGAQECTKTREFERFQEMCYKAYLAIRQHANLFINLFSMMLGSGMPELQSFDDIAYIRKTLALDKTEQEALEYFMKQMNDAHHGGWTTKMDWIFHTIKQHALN
substance,measurement,setting,value
"YARAAARQARASPAARRA(pS)AILPG (YARAAARQARASPAARRA[pS]AILPG) [NiPp, Cell-permeant phosphopeptide mimetic of Niban: transduction domain … conjugated to the region surrounding serine 602 of Niban]",endothelial-dependent relaxation in HSV (percent relaxation to 5×10^−6 M CCH),"[1]; NiPp 100 μM in PL, 2 h, room temperature, n=10",improves; also recorded: improvement
same,endothelial function (percent relaxation to carbachol) in HSV,"[1]; NiPp 100 μM, room temperature, n=10",increased endothelial function
same,relaxation responses normalized to baseline relaxation in HSV,"[1]; NiPp 100 μM, n=10",255±321.5%
same,endothelial function (percent relaxation to carbachol) in HSV,"[1]; NiPp 500 μM, room temperature, n=2",increased endothelial function
same,relaxation responses normalized to baseline relaxation in HSV,"[1]; NiPp 500 μM, n=2",183±24%
same,inhibition of FGFR1,FGFR1,inhibited
same,inhibition of CKD18,CKD18,inhibited
same,inhibition of PIK3R3 kinase,PIK3R3 kinase,inhibited
